Where two headings read alike, the source gives them in different places.
Tests used:
[1] = biological target: T1, human adenosine A3 receptor (Homo sapiens, UniProt P0DMS8); assay: Competitive radioligand binding with [3H]PSB-11, membranes of CHO or HEK cells; conditions: for Selectivity Ratio Ki(Ax)/Ki(A2B): A3/A2B: ratio of Ki values
T1 construct: host or cells: CHO or HEK cells
T1 sequence (P0DMS8 1-318): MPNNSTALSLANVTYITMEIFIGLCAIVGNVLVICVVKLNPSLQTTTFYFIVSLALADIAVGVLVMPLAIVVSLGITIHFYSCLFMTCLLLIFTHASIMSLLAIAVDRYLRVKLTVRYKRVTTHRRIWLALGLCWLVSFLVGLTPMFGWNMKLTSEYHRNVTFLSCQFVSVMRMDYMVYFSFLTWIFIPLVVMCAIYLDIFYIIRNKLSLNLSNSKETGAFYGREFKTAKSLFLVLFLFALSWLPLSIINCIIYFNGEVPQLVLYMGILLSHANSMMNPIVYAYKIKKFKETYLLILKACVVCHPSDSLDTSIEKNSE
Description: (§1) The binding affinities of 2 and 9 at the four human adenosine receptor subtypes A2B, A2A, A1, and A3, presented in Table 1, were determined in competitive binding assays using appropriate radioligands and membrane preparations of Chinese hamster ovary (CHO) cells or human embryonic kidney (HEK) cells, respectively, recombinantly expressing the corresponding human receptor subtype.
(§2) Membrane preparations of recombinant CHO or HEK (human embryonic kidney) cells expressing the respective human adenosine receptor subtype were obtained according to Borrman et al. or purchased from Perkin Elmer, Germany. Radioligand binding assays using human A1, A2A, A2B and A3 receptors were performed according to Alnouri et al..
(§3) [^3H](R)-8-ethyl-4-methyl-2-(phenyl)1,4,7,8-tetrahydro-5H-imidazo[2,1-i]purin-5-one ([^3H]PSB-11, molar activity: 53 Ci/mmol, 1 nM [30]) for the A3 receptor. Three separate experiments were performed to determine the Ki values. All data were analyzed with GraphPad Prism, Version 4.1 (GraphPad Inc., La Jolla, CA,USA).

[2] = biological target: T2, human adenosine A1 receptor (Homo sapiens, UniProt P30542); conditions: cited from earlier work
T2 construct: host or cells: CHO or HEK cells
T2 sequence (P30542 1-326): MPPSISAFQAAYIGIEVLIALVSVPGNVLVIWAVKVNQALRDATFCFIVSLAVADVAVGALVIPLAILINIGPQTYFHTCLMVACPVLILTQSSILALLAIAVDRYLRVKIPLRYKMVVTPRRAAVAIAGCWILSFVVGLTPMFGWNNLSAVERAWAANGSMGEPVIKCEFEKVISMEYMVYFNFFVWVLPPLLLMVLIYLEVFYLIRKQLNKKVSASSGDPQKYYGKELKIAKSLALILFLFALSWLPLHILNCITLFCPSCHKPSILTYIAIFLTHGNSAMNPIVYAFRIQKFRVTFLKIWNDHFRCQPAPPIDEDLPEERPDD

[3] = biological target: T3, human adenosine A2A receptor (Homo sapiens, UniProt P29274); conditions: cited from earlier work
T3 construct: host or cells: CHO or HEK cells
T3 sequence (P29274 whole entry): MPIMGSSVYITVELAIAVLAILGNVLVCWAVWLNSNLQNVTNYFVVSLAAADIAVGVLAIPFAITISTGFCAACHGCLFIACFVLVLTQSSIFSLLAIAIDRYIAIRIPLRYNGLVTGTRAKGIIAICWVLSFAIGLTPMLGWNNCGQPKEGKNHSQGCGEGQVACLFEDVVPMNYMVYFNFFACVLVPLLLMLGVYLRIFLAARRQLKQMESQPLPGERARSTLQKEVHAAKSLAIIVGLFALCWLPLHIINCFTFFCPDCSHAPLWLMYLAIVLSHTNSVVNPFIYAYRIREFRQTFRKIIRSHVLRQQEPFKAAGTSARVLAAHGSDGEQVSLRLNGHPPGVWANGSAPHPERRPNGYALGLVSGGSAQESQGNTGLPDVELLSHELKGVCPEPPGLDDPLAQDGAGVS

[4] = biological target: T2, human adenosine A1 receptor; assay: Competitive radioligand binding with [3H]CCPA, membranes of CHO or HEK cells; conditions: for Selectivity Ratio Ki(Ax)/Ki(A2B): A1/A2B: ratio of Ki values
Description: as §1, §2
[^3H]2-Chloro-N^6cyclopentyladenosine ([^3H]CCPA, molar activity: 58 Ci/mmol, 1 nM [28]) for the A1 receptor,
as §3

[5] = biological target: T1, human adenosine A3 receptor; conditions: cited from earlier work
[6] = biological target: T4, human adenosine A2B receptor (Homo sapiens, UniProt P29275); conditions: cited from earlier work
T4 construct: host or cells: CHO or HEK cells
T4 sequence (P29275 1-332): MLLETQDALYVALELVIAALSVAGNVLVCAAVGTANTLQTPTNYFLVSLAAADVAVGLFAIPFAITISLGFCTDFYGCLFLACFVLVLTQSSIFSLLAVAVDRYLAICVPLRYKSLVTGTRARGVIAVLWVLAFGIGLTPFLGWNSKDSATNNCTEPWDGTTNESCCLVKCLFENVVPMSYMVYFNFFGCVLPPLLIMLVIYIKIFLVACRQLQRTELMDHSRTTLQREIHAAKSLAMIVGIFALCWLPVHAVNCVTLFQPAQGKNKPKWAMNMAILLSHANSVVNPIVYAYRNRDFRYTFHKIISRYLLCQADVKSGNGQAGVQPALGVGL

[7] = biological target: T3, human adenosine A2A receptor; assay: Competitive radioligand binding with [3H]MSX-2, membranes of CHO or HEK cells; conditions: for Selectivity Ratio Ki(Ax)/Ki(A2B): A2A/A2B: ratio of Ki values
Description: as §1, §2
[^3H]3-(3-hydroxypropyl)-7-methyl-8-(m-methoxystyryl)-1-propargylxanthine, ([^3H]MSX-2, molar activity: 84 Ci/mmol, 1 nM [29]) for the A2A receptor,
as §3

[8] = design: method as in PMID 20138516; conditions: in vitro, rat hepatic microsomes; cited from earlier work
[9] = biological target: T4, human adenosine A2B receptor; assay: Competitive radioligand binding with [3H]PSB-603, membranes of CHO or HEK cells; conditions: mean ± SEM of three independent assays
Description: as §1, §2
[^3H]8-(4-[4-(4-chlorophenyl)piperazine-1-sulfonyl]phenyl)-1-propyl-2,3,6,7-tetrahydro-1H-purine-2,6-dione ([^3H]PSB-603, molar activity: 73Ci/mmol, 0.3 nM [26]) for the A2B receptor, and
as §3

Row | SMILES | Selectivity Ratio Ki(Ax)/Ki(A2B): A3/A2B [1] | Ki [2] | Ki [3] | Selectivity Ratio Ki(Ax)/Ki(A2B): A1/A2B [4] | Ki [5] | Ki [6] | Selectivity Ratio Ki(Ax)/Ki(A2B): A2A/A2B [7] | Ki ([1]; [3H]PSB-11, mean ± SEM of three independent assays) | metabolic stability [8] | Ki ([4]; [3H]CCPA, mean ± SEM of three independent assays) | Ki [9] | Ki ([7]; [3H]MSX-2, mean ± SEM of three independent assays)
1 | O=C(Nc1cnc(-c2ccnc(F)c2)c(-c2ccccc2F)n1)C1CC1 [Compound 1] | 188 | 19 ± 5.2 nM | 55 ± 6.1 nM | 4.5 | 796 ± 26 nM | 4.24 ± 0.04 nM | 13 |  |  |  |  | 
2 | O=c1[nH]c(=O)c2cc(-c3ccncn3)c(-c3ccco3)nc2[nH]1 [Compound 2, 7-(Furan-2-yl)-6-(pyrimidin-4-yl)pyrido[2,3-d]pyrimidine-2,4-(1H,3H)-dione] | > 400 |  |  | > 400 |  |  | 39 | > 1000 nM | high metabolic stability | > 1000 nM | 2.51 ± 1.1 nM | 98.8 ± 28.3 nM

Reference: paper PMC7246765, “Development of a Radiofluorinated Adenosine A2B Receptor Antagonist as Potential Ligand for PET Imaging” (International Journal of Molecular Sciences, 2020)
